Measured values published in US10875875B2, “Propionic acid derivatives and methods of use thereof” (Aviara Pharmaceuticals, Inc., priority 2017, dated 2020).
pIC50: −log10 of the molar value.

Experiments:
α4β1 = α4β1 (Homo sapiens, UniProt P05556+P13612); assay: α4β1 integrin inhibition, IC50; type: binding; conditions: read-out: α4β1 IC50
α4β7 = target: T1, α4β7 (Homo sapiens, UniProt P13612+P26010); assay: α4β7 integrin inhibition, IC50; type: binding
T1 sequence (P13612 34-1032): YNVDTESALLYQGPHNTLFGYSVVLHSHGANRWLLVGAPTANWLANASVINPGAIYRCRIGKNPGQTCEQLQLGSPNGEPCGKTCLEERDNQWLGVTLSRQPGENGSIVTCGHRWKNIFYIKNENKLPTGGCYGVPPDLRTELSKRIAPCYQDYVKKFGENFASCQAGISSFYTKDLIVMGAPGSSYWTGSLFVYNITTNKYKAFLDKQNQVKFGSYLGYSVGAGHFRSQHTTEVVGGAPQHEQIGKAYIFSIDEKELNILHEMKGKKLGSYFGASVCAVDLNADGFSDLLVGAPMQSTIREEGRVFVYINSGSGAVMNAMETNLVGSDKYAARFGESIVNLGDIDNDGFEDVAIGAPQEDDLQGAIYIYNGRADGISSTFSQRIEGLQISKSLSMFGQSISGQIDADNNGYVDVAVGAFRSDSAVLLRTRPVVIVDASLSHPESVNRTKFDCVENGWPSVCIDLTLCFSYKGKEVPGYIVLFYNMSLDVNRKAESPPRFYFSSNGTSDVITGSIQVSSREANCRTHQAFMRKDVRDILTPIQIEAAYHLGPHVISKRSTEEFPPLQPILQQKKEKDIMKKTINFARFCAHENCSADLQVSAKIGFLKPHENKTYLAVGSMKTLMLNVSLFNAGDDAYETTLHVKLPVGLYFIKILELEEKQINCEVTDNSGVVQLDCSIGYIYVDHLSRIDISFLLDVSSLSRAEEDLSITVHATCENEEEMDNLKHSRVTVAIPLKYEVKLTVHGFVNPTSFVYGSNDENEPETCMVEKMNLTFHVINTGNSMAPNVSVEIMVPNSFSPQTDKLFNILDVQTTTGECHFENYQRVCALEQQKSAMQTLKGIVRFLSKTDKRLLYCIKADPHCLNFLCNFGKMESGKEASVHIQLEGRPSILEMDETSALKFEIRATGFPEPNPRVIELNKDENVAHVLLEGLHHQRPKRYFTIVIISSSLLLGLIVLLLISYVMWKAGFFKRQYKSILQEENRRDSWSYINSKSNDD
T1 sequence (P26010 20-798): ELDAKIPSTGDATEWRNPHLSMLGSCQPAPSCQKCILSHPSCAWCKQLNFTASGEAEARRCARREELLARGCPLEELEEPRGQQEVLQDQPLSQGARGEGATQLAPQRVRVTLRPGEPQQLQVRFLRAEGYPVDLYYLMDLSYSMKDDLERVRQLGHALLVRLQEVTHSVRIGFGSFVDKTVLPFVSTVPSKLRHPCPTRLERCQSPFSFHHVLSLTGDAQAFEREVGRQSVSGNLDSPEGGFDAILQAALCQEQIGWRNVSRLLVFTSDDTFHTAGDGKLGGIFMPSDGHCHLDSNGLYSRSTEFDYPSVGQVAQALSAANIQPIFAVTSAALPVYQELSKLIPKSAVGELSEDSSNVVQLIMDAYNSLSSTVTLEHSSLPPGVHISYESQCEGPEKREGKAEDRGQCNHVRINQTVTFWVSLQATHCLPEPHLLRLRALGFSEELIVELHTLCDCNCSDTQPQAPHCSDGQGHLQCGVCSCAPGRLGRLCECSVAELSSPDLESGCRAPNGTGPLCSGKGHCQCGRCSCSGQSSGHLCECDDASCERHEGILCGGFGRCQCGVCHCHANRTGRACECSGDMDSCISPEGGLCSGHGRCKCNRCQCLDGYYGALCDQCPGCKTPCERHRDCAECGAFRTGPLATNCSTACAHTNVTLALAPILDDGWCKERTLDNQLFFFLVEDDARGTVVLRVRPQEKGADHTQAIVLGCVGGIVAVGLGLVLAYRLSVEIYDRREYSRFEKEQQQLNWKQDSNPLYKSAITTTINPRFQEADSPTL

Sequence of α4β1 (P05556 21-798, one chain of several): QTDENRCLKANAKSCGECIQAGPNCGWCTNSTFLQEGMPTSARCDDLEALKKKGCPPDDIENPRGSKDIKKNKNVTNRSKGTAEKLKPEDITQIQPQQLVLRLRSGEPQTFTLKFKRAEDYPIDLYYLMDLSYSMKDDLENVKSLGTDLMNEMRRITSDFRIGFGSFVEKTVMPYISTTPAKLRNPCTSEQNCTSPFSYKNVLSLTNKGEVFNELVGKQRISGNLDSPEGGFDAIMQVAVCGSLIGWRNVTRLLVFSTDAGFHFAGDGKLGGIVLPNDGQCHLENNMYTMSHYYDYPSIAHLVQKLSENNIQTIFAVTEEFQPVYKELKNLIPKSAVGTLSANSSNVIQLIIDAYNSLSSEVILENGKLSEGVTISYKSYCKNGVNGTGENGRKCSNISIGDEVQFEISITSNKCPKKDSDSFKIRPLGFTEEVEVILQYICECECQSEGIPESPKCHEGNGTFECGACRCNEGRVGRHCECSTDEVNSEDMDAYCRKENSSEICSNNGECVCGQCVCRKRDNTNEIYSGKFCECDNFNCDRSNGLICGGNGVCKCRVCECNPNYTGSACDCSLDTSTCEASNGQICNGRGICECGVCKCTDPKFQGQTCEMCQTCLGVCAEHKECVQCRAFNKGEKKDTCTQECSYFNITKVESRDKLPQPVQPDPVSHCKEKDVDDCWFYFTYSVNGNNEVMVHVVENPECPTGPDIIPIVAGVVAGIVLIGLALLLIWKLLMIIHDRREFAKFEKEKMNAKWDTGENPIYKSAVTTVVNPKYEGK

| SMILES | pIC50 (α4β1) | pIC50 (α4β7) |
| --- | --- | --- |
| Cc1cn(C)c(=O)c(NC(=O)N[C@@H](CC(=O)O)c2cccc(-c3c(C)cccc3C)c2)c1O [1-470, sodium (S)-3-(3-(1,5-dimethyl-4-oxido-2-oxo-1,2-dihydropyridin-3-yl)ureido)-3-(2′,6′-dimethylbiphenyl-3-yl)propanoate] | > 7.70 | > 6.70 |
| Cn1ccc(O)c(NC(=O)N[C@@H](CC(=O)O)c2cccc(-c3ccc(F)cc3F)c2)c1=O [1-488, sodium (S)-3-(2′,4′-difluorobiphenyl-3-yl)-3-(3-(1-methyl-4-oxido-2-oxo-1,2-dihydropyridin-3-yl)ureido)propanoate] | > 7.70 | < 6.70 |
| COc1cc(-c2c(C)cccc2C)cc([C@H](CC(=O)O)NC(=O)Nc2c(O)cc(C)n(C)c2=O)c1 [1-580, sodium (S)-3-(3-(1,6-dimethyl-4-oxido-2-oxo-1,2-dihydropyridin-3-yl)ureido)-3-(5-methoxy-2′,6′-dimethylbiphenyl-3-yl)propanoate] | > 7.70 | > 7.70 |
| COc1cccc(-c2cc(C)cc([C@H](CC(=O)O)NC(=O)Nc3c(O)ccn(C)c3=O)c2)c1 [1-582, sodium (S)-3-(3′-methoxy-5-methylbiphenyl-3-yl)-3-(3-(1-methyl-4-oxido-2-oxo-1,2-dihydropyridin-3-yl)ureido)propanoate] | > 7.70 | > 6.70 |
| Cc1cccc(C)c1-c1cccc([C@H](CC(=O)O)NC(=O)Nc2c(O)ccn(C)c2=O)c1 [1-502, sodium (S)-3-(2′,6′-dimethylbiphenyl-3-yl)-3-(3-(1-methyl-4-oxido-2-oxo-1,2-dihydropyridin-3-yl)ureido)propanoate] | > 7.70 | > 6.70 |
| Cc1cccc(C)c1-c1cc(F)cc([C@H](CC(=O)O)NC(=O)Nc2c(O)cc(C)n(C)c2=O)c1 [1-642, sodium (S)-3-(3-(1,6-dimethyl-4-oxido-2-oxo-1,2-dihydropyridin-3-yl)ureido)-3-(5-fluoro-2′,6′-dimethylbiphenyl-3-yl)propanoate] | > 7.70 | > 7.70 |
| COc1cccc(-c2cccc([C@H](CC(=O)O)NC(=O)Nc3c(O)ccn(C)c3=O)c2)c1 [1-501, sodium (S)-3-(3′-methoxybiphenyl-3-yl)-3-(3-(1-methyl-4-oxido-2-oxo-1,2-dihydropyridin-3-yl)ureido)propanoate] | > 7.70 |  |
| Cc1ccc([C@H](CC(=O)O)NC(=O)Nc2c(O)ccn(C)c2=O)cc1-c1ccc(F)cc1F [1-541, sodium (S)-3-(2′,4′-difluoro-6-methylbiphenyl-3-yl)-3-(3-(1-methyl-4-oxido-2-oxo-1,2-dihydropyridin-3-yl)ureido)propanoate] | > 7.70 |  |
| Cc1ccc([C@H](CC(=O)O)NC(=O)Nc2c(O)cc(C)n(C)c2=O)cc1-c1cccc(OC(F)(F)F)c1 [1-577, sodium (S)-3-(3-(1,6-dimethyl-4-oxido-2-oxo-1,2-dihydropyridin-3-yl)ureido)-3-(6-methyl-3′-(trifluoromethoxy)biphenyl-3-yl)propanoate] | > 7.70 |  |
| Cc1cc(O)c(NC(=O)N[C@@H](CC(=O)O)c2cc(-c3ccc(F)cc3F)cs2)c(=O)n1C [1-552, sodium (S)-3-(4-(2,4-difluorophenyl)thiophen-2-yl)-3-(3-(1,6-dimethyl-4-oxido-2-oxo-1,2-dihydropyridin-3-yl)ureido)propanoate] | > 7.70 |  |
| Cc1cn(C)c(=O)c(NC(=O)N[C@@H](CC(=O)O)c2cccc(-c3ccccc3C(F)(F)F)c2)c1O [1-474, sodium (S)-3-(3-(1,5-dimethyl-4-oxido-2-oxo-1,2-dihydropyridin-3-yl)ureido)-3-(2′-(trifluoromethyl)biphenyl-3-yl)propanoate] | > 6.70 |  |
| Cn1ccc(O)c(NC(=O)N[C@@H](CC(=O)O)c2cccc(-n3ccnc3)c2)c1=O [1-539, sodium (S)-3-(3-(1H-imidazol-1-yl)phenyl)-3-(3-(1-methyl-4-oxido-2-oxo-1,2-dihydropyridin-3-yl)ureido)propanoate] | > 7.70 |  |
| Cc1ccc(C)c(-c2cccc([C@H](CC(=O)O)NC(=O)Nc3c(O)c(C)cn(C)c3=O)c2)c1 [1-459, sodium (S)-3-(3-(1,5-dimethyl-4-oxido-2-oxo-1,2-dihydropyridin-3-yl)ureido)-3-(2′,5′-dimethylbiphenyl-3-yl)propanoate] | > 7.70 |  |
| COc1cc([C@H](CC(=O)O)NC(=O)Nc2c(O)c(C)cn(C)c2=O)cc(-c2ccccc2)c1OC [1-475, sodium (S)-3-(5,6-dimethoxybiphenyl-3-yl)-3-(3-(1,5-dimethyl-4-oxido-2-oxo-1,2-dihydropyridin-3-yl)ureido)propanoate] | > 6.70 |  |
| COc1cc(-c2ccc(F)cc2F)cc([C@H](CC(=O)O)NC(=O)Nc2c(O)ccn(C)c2=O)c1 [1-566, sodium (S)-3-(2′,4′-difluoro-5-methoxybiphenyl-3-yl)-3-(3-(1-methyl-4-oxido-2-oxo-1,2-dihydropyridin-3-yl)ureido)propanoate] | > 7.70 |  |
| Cc1cscc1-c1cccc([C@H](CC(=O)O)NC(=O)Nc2c(O)ccn(C)c2=O)c1 [1-540, sodium (S)-3-(3-(1-methyl-4-oxido-2-oxo-1,2-dihydropyridin-3-yl)ureido)-3-(3-(4-methylthiophen-3-yl)phenyl)propanoate] | > 7.70 |  |
| Cn1ccc(O)c(NC(=O)N[C@@H](CC(=O)O)c2cccc(-c3cnccn3)c2)c1=O [15-2, sodium (S)-3-(3-(1-methyl-4-oxido-2-oxo-1,2-dihydropyridin-3-yl)ureido)-3-(3-(pyrazin-2-yl)phenyl)propanoate] | > 7.70 |  |
| Cn1ccc(O)c(NC(=O)N[C@@H](CC(=O)O)c2cc(-c3ccccc3)cc(C(F)(F)F)c2)c1=O [1-618, sodium (S)-3-(3-(1-methyl-4-oxido-2-oxo-1,2-dihydropyridin-3-yl)ureido)-3-(5-(trifluoromethyl)biphenyl-3-yl)propanoate] | < 6.70 |  |
| Cc1cn(C)c(=O)c(NC(=O)NC(CC(=O)O)c2cccc(-c3ccc(Cl)cc3)c2)c1O (centres unmarked) [1-471, sodium 3-(4′-chlorobiphenyl-3-yl)-3-(3-(1,5-dimethyl-4-oxido-2-oxo-1,2-dihydropyridin-3-yl)ureido)propanoate] | > 6.70 |  |
| Cn1ccc(O)c(NC(=O)N[C@@H](CC(=O)O)c2cccc(-c3ccccc3)n2)c1=O [1-571, sodium (S)-3-(3-(1-methyl-4-oxido-2-oxo-1,2-dihydropyridin-3-yl)ureido)-3-(6-phenylpyridin-2-yl)propanoate] | > 7.70 |  |
| Cn1ccc(O)c(NC(=O)N[C@@H](CC(=O)O)c2ccc(-c3ccccc3)s2)c1=O [1-613, sodium (S)-3-(3-(1-methyl-4-oxido-2-oxo-1,2-dihydropyridin-3-yl)ureido)-3-(5-phenylthiophen-2-yl)propanoate] | > 7.70 |  |
| COc1ccc(-c2cccc([C@H](CC(=O)O)NC(=O)Nc3c(O)c(C)cn(C)c3=O)c2)cc1OC [1-469, sodium (S)-3-(3′,4′-dimethoxybiphenyl-3-yl)-3-(3-(1,5-dimethyl-4-oxido-2-oxo-1,2-dihydropyridin-3-yl)ureido)propanoate] | > 7.70 |  |
| Cn1cc(-c2cccc([C@H](CC(=O)O)NC(=O)Nc3c(O)ccn(C)c3=O)c2)cn1 [1-548, sodium (S)-3-(3-(1-methyl-1H-pyrazol-4-yl)phenyl)-3-(3-(1-methyl-4-oxido-2-oxo-1,2-dihydropyridin-3-yl)ureido)propanoate] | > 7.70 |  |
